# Target: T1, full-length beta-Catenin (Uniprot ID P35222) (Homo sapiens, UniProt P35222)
# T1 construct: 10 nM full-length beta-Catenin (Uniprot ID P35222)
# T1 sequence (P35222 1-781): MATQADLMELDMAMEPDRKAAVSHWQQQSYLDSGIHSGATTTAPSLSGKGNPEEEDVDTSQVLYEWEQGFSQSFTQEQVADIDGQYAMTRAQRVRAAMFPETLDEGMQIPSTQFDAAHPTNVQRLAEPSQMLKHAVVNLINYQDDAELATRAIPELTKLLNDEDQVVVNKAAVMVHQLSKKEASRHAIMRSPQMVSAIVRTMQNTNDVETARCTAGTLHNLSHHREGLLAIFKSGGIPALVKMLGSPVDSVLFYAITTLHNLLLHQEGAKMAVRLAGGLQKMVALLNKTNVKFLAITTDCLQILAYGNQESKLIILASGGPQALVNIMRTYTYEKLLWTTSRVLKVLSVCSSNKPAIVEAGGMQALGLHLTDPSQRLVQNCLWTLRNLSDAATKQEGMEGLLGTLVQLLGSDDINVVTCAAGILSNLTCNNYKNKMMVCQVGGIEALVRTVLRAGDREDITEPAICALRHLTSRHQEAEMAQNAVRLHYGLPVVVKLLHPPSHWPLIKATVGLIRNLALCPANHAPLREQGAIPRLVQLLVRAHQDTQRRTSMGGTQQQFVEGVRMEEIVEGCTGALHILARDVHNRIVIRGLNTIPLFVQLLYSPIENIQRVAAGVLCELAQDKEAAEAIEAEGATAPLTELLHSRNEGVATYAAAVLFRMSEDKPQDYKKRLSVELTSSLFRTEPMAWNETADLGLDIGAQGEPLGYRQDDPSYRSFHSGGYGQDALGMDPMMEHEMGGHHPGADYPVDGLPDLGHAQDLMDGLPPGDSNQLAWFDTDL
# Test: Fluorescence polarization IC50 (beta-catenin / 5FAM-TCF4 10-53 competition)
# Assay type: binding
# Details: fluorescence polarization; read-out: beta-Catenin FP IC50
row,SMILES,IC50 [µM]
1,"CC(=O)N1CCC[C@]12CC=CCCCC1(CCCC=CCCCOC(=O)N3CC[C@@](C(=O)N[C@@H](Cc4ccsc4)C(=O)N[C@@H](Cc4csc5ccccc45)C(=O)N[C@H](C(N)=O)C(C)C)(C3)NC(=O)[C@H](CC(C)C)NC(=O)[C@H](Cc3ccccc3)NC(=O)[C@H](C)NC(=O)[C@H](C)NC(=O)[C@H](CN(CC(=O)O)CC(F)(F)F)NC(=O)[C@H](CC(=O)O)NC1=O)NC(=O)[C@H](CC(C)(C)C)NC(=O)[C@H](CC(=O)O)NC2=O (stereo partly drawn) [I-1751, Ac-PL3-Asp-Npg-B5-Asp-TfeGA-Ala-Ala-Phe-Leu-PyrS2-3Thi-BztA-Val-NH2]",0.104
2,"CC(=O)N1CCC[C@]12CC=CCCCC1(CCCC=CCCCOC(=O)N3CC[C@@](C(=O)N[C@@H](Cc4ccsc4)C(=O)N[C@@H](Cc4csc5ccccc45)C(=O)N[C@H](C(N)=O)C(C)C)(C3)NC(=O)[C@H](CC(C)C)NC(=O)[C@H](Cc3ccccc3)NC(=O)[C@H](C)NC(=O)[C@H](C)NC(=O)[C@H](CN(CC(=O)O)CC(F)(F)F)NC(=O)[C@H](CC(=O)O)NC1=O)NC(=O)[C@H](CC(C)(C)C)NC(=O)[C@H](CC(=O)O)NC2=O (stereo partly drawn) [I-1752, Ac-PL3-Asp-Npg-B5-Asp-TfeGA-Ala-Ala-Phe-Leu-PyrS2-3Thi-BztA-Val-NH2]",0.087
3,"CC(=O)N1CCC[C@]12CCCCCCC1(CCCCCCCCOC(=O)N3CC[C@@](C(=O)N[C@@H](Cc4ccsc4)C(=O)N[C@@H](Cc4csc5ccccc45)C(=O)N[C@@H](CC(C)C)C(N)=O)(C3)NC(=O)[C@H](CC(C)C)NC(=O)[C@H](Cc3ccccc3)NC(=O)[C@H](C)NC(=O)[C@H](C)NC(=O)[C@H](CN(CC(=O)O)CC(F)(F)F)NC(=O)[C@H](CC(=O)O)NC1=O)NC(=O)[C@H](CC(C)(C)C)NC(=O)[C@H](CC(=O)O)NC2=O (stereo partly drawn) [I-1753, Ac-PL3-Asp-Npg-B5-Asp-TfeGA-Ala-Ala-Phe-Leu-PyrS2-3Thi-BztA-Leu-NH2]",0.802
4,"CC(=O)N1CCC[C@]12CCCCCCC1(CCCCCCCCOC(=O)N3CC[C@@](C(=O)N[C@@H](Cc4ccsc4)C(=O)N[C@@H](Cc4csc5ccccc45)C(=O)N[C@@H](CC(C)C)C(N)=O)(C3)NC(=O)[C@H]([C@@H](C)O)NC(=O)[C@H](Cc3ccccc3)NC(=O)[C@H](C)NC(=O)[C@H](C)NC(=O)[C@H](CN(CC(=O)O)CC(F)(F)F)NC(=O)[C@H](CC(=O)O)NC1=O)NC(=O)[C@H](CC(C)(C)C)NC(=O)[C@H](CC(=O)O)NC2=O (stereo partly drawn) [I-1754, Ac-PL3-Asp-Npg-B5-Asp-TfeGA-Ala-Ala-Phe-Thr-PyrS2-3Thi-BztA-Leu-NH2]",0.66
5,"CC(=O)N1CCC[C@]12CCCCCCC1(CCCCCCCCOC(=O)N3CC[C@@](C(=O)N[C@@H](Cc4ccsc4)C(=O)N[C@@H](Cc4csc5ccccc45)C(=O)N[C@@H](Cc4ccccc4)C(N)=O)(C3)NC(=O)[C@H](CC(C)C)NC(=O)[C@H](Cc3ccccc3)NC(=O)[C@H](C)NC(=O)[C@H](C)NC(=O)[C@H](CN(CC(=O)O)CC(F)(F)F)NC(=O)[C@H](CC(=O)O)NC1=O)NC(=O)[C@H](CC(C)(C)C)NC(=O)[C@H](CC(=O)O)NC2=O (stereo partly drawn) [I-1755, Ac-PL3-Asp-Npg-B5-Asp-TfeGA-Ala-Ala-Phe-Leu-PyrS2-3Thi-BztA-Phe-NH2]",0.57
6,"CC(=O)N1CCC[C@]12CCCCCCC1(CCCCCCCCOC(=O)N3CC[C@@](C(=O)N[C@@H](Cc4ccsc4)C(=O)N[C@@H](Cc4csc5ccccc45)C(=O)N[C@@H](Cc4ccccc4)C(N)=O)(C3)NC(=O)[C@H]([C@@H](C)O)NC(=O)[C@H](Cc3ccccc3)NC(=O)[C@H](C)NC(=O)[C@H](C)NC(=O)[C@H](CN(CC(=O)O)CC(F)(F)F)NC(=O)[C@H](CC(=O)O)NC1=O)NC(=O)[C@H](CC(C)(C)C)NC(=O)[C@H](CC(=O)O)NC2=O (stereo partly drawn) [I-1756, Ac-PL3-Asp-Npg-B5-Asp-TfeGA-Ala-Ala-Phe-Thr-PyrS2-3Thi-BztA-Phe-NH2]",0.329
7,"CC(=O)N1CCC[C@]12CCCCCCC1(CCCCCCCCOC(=O)N3CC[C@@](C(=O)N[C@@H](Cc4ccsc4)C(=O)N[C@@H](Cc4csc5ccccc45)C(=O)N[C@H](C(N)=O)C(C)C)(C3)NC(=O)[C@H](CC(C)C)NC(=O)[C@H](Cc3ccccc3)NC(=O)[C@H](C)NC(=O)[C@H](C)NC(=O)[C@H](CN(CC(=O)O)CC(F)(F)F)NC(=O)[C@H](CC(=O)O)NC1=O)NC(=O)[C@H](CC(C)(C)C)NC(=O)[C@H](CC(=O)O)NC2=O (stereo partly drawn) [I-1757, Ac-PL3-Asp-Npg-B5-Asp-TfeGA-Ala-Ala-Phe-Leu-PyrS2-3Thi-BztA-Val-NH2]",0.449
8,"CC(=O)N1CCC[C@]12CCCCCCC1(CCCCCCCCOC(=O)N3CC[C@@](C(=O)N[C@@H](Cc4ccsc4)C(=O)N[C@@H](Cc4csc5ccccc45)C(=O)N[C@H](C(N)=O)C(C)C)(C3)NC(=O)[C@H]([C@@H](C)O)NC(=O)[C@H](Cc3ccccc3)NC(=O)[C@H](C)NC(=O)[C@H](C)NC(=O)[C@H](CN(CC(=O)O)CC(F)(F)F)NC(=O)[C@H](CC(=O)O)NC1=O)NC(=O)[C@H](CC(C)(C)C)NC(=O)[C@H](CC(=O)O)NC2=O (stereo partly drawn) [I-1758, Ac-PL3-Asp-Npg-B5-Asp-TfeGA-Ala-Ala-Phe-Thr-PyrS2-3Thi-BztA-Val-NH2]",0.235
9,"CC(=O)N1CCC[C@]12CCCCCCC1(CCCCCCCCOC(=O)N3CC[C@@](C(=O)N[C@@H](Cc4ccsc4)C(=O)N[C@@H](Cc4csc5ccccc45)C(=O)N[C@@H](CC(C)C)C(N)=O)(C3)NC(=O)[C@H](CC(C)C)NC(=O)[C@H](Cc3ccccc3)NC(=O)[C@H](C)NC(=O)[C@H](CCCCNC(C)C)NC(=O)[C@H](CN(CC(=O)O)CC(F)(F)F)NC(=O)[C@H](CC(=O)O)NC1=O)NC(=O)[C@H](CC(C)(C)C)NC(=O)[C@H](CC(=O)O)NC2=O (stereo partly drawn) [I-1765, Ac-PL3-Asp-Npg-B5-Asp-TfeGA-iPrLys-Ala-Phe-Leu-PyrS2-3Thi-BztA-Leu-NH2]",0.667
10,"CC(=O)N1CCC[C@]12CCCCCCC1(CCCCCCCCOC(=O)N3CC[C@@](C(=O)N[C@@H](Cc4ccsc4)C(=O)N[C@@H](Cc4csc5ccccc45)C(=O)N[C@@H](CC(C)C)C(N)=O)(C3)NC(=O)[C@H]([C@@H](C)O)NC(=O)[C@H](Cc3ccccc3)NC(=O)[C@H](C)NC(=O)[C@H](CCCCNC(C)C)NC(=O)[C@H](CN(CC(=O)O)CC(F)(F)F)NC(=O)[C@H](CC(=O)O)NC1=O)NC(=O)[C@H](CC(C)(C)C)NC(=O)[C@H](CC(=O)O)NC2=O (stereo partly drawn) [I-1766, Ac-PL3-Asp-Npg-B5-Asp-TfeGA-iPrLys-Ala-Phe-Thr-PyrS2-3Thi-BztA-Leu-NH2]",0.267
11,"CC(=O)N1CCC[C@]12CCCCCCC1(CCCCCCCCOC(=O)N3CC[C@@](C(=O)N[C@@H](Cc4ccsc4)C(=O)N[C@@H](Cc4csc5ccccc45)C(=O)N[C@@H](Cc4ccccc4)C(N)=O)(C3)NC(=O)[C@H](CC(C)C)NC(=O)[C@H](Cc3ccccc3)NC(=O)[C@H](C)NC(=O)[C@H](CCCCNC(C)C)NC(=O)[C@H](CN(CC(=O)O)CC(F)(F)F)NC(=O)[C@H](CC(=O)O)NC1=O)NC(=O)[C@H](CC(C)(C)C)NC(=O)[C@H](CC(=O)O)NC2=O (stereo partly drawn) [I-1767, Ac-PL3-Asp-Npg-B5-Asp-TfeGA-iPrLys-Ala-Phe-Leu-PyrS2-3Thi-BztA-Phe-NH2]",0.327
12,"CC(=O)N1CCC[C@]12CCCCCCC1(CCCCCCCCOC(=O)N3CC[C@@](C(=O)N[C@@H](Cc4ccsc4)C(=O)N[C@@H](Cc4csc5ccccc45)C(=O)N[C@H](C(N)=O)C(C)C)(C3)NC(=O)[C@H](CC(C)C)NC(=O)[C@H](Cc3ccccc3)NC(=O)[C@H](C)NC(=O)[C@H](CCCCNC(C)C)NC(=O)[C@H](CN(CC(=O)O)CC(F)(F)F)NC(=O)[C@H](CC(=O)O)NC1=O)NC(=O)[C@H](CC(C)(C)C)NC(=O)[C@H](CC(=O)O)NC2=O (stereo partly drawn) [I-1769, Ac-PL3-Asp-Npg-B5-Asp-TfeGA-iPrLys-Ala-Phe-Leu-PyrS2-3Thi-BztA-Val-NH2]",0.419
13,"CC(=O)N1CCC[C@]12CC=CCCCC1(CCCC=CCCCOC(=O)N3CC[C@@](C(=O)N[C@@H](Cc4ccsc4)C(=O)N[C@@H](Cc4csc5ccccc45)C(=O)N[C@@H](CCC(N)=O)C(N)=O)(C3)NC(=O)[C@H](CC(C)C)NC(=O)[C@H](Cc3ccccc3)NC(=O)[C@H](C)NC(=O)[C@H](C)NC(=O)[C@H](CN(CC(=O)O)CC(F)(F)F)NC(=O)[C@H](C(C)(C)C(=O)O)NC1=O)NC(=O)[C@H](CC(C)(C)C)NC(=O)[C@H](CC(=O)O)NC2=O (stereo partly drawn) [I-1771, Ac-PL3-Asp-Npg-B5-bMe2Asp-TfeGA-Ala-Ala-Phe-Leu-PyrS2-3Thi-BztA-Gln-NH2]",0.209
14,"CC(=O)N1CCC[C@]12CC=CCCCC1(CCCC=CCCCOC(=O)N3CC[C@@](C(=O)N[C@@H](Cc4ccsc4)C(=O)N[C@@H](Cc4csc5ccccc45)C(=O)N[C@@H](CCC(N)=O)C(N)=O)(C3)NC(=O)[C@H](CC(C)C)NC(=O)[C@H](Cc3ccccc3)NC(=O)[C@H](C)NC(=O)[C@H](C)NC(=O)[C@H](CN(CC(=O)O)CC(F)(F)F)NC(=O)[C@H](CC(=O)O)NC1=O)NC(=O)[C@H](CC1CCCCC1)NC(=O)[C@H](CC(=O)O)NC2=O (stereo partly drawn) [I-1775, Ac-PL3-Asp-Cha-B5-Asp-TfeGA-Ala-Ala-Phe-Leu-PyrS2-3Thi-BztA-Gln-NH2]",0.015

# Source: patent publication US20240116985A1, “STAPLED PEPTIDES AND METHODS THEREOF” (priority 2020, published 2024)
